In patent US8961959B2, “Glucosylceramide synthase inhibitors and therapeutic methods using the same” (The Regents of the University of Michigan, priority 2011, dated 2015):
“Also recorded” adds a separate entry of the source.

Experiments:
[1] = biological target: T1, MDR1 (Homo sapiens, UniProt P08183); test: [3H]Vinblastine transport in MDR1-MDCKII cells; assay type: cell-based; settings: for [3H]vinblastine uptake into MDR1-MDCKII cells: 1-100 μM, 2 h, relative to vehicle
T1 construct: host or cells: MDCKII (canine kidney) cells retrovirally transduced with human MDR-1 cDNA
Method: MDR1- and WT-MDCKII cells were grown to confluence on Transwell filters (12 well plates) in DMEM+10% FBS. […] Uptake was measured over 2 hours at 37° C. At that time, uptake was stopped by washing each side of the membrane 3× with ice-cold PBS. Vinblastine uptake into the cells, after correction for any remaining adherent extracellular contamination, was calculated as described previously (11). To investigate the effect of experimental drugs on MDR-mediated transport, those compounds were added to the apical chamber (1-100 μM) during vinblastine uptake and the uptake results expressed as a % of that with vehicle alone.

[2] = tested on: C57BL/6 mice; test: Organ GlcCer content in C57BL/6 mice after short term i.p. dosing; assay type: in vivo, mouse; settings: for change in brain GlcCer levels: 10 mg/kg/day i.p. for 3 days, 12 h after last injection; for fall in brain GlcCer levels: 30 mg/kg q 12 h for 3 days i.p.; for liver and kidney GlcCer levels: i.p. 3 days; for brain GlcCer content, short term dosing: i.p. for 3 days, in words
Method: C57BL/6 mice were maintained on regular chow in specific-pathogen-free facilities. All animal studies were performed under the review of the University of Michigan Committee on the Use and Care of Animals and conformed to the National Institutes of Health Guide for the Care and Use of Laboratory Animals. Injection solutions were prepared from inhibitor-ethanol stock solution (100 mM) A portion of the stock solution was evaporated under a stream of N2 gas. Dried eliglustat tartrate (compound 3a) was directly dissolved into 1× phosphate buffered saline. […] The acidic solution was neutralized by mixing 100 μL of 10× phosphate buffered saline with 636.3 μL of water to bring the total volume to one ml. Inhibitor solutions were sterilized by passage through a […]. Inhibitor recovery after filtration was confirmed by UV spectrometry and exceeded 99%. For control injections, phosphate buffered saline containing the same amount of HCl was used. Inhibitors were given to 6 to 8 week old female or male C57BL/6 mice by intraperitoneal injection volume at 1% of body weight.
Lipid extractions of liver, kidney, and brain were performed as previously described (7). Briefly, frozen liver (about 0.5 g), two kidneys (about 0.3 g) and whole brain (about 0.4 g) were individually homogenized in sucrose buffer (250 mM sucrose, pH 7.4, 10 mM HEPES and 1 mM EDTA), at 0.2 g tissue/1 mL of sucrose buffer, with a Tri-R homogenizer. Each 0.8 mL of homogenate was mixed with 2 mL of methanol and 1 mL of chloroform, bath sonicated for 1 min and incubated at room temperature for 1 h. Tissue debris were removed by centrifugation at 2,400×gravity for 30 min. The pellets were re-extracted by mixing with 1 mL of methanol, 0.5 mL of chloroform and 0.4 mL of 0.9% NaCl (chloroform/methanol/0.9% NaCl, 1:2:0.8), incubated at room temperature for 1 h and centrifuged at 2,400×gravity for another 30 min. Two extracts were combined and mixed with 4.5 mL of chloroform and 1.2 mL of 0.9% NaCl (chloroform/methanol/0.9% NaCl, 2:1:0.8). After centrifugation at 800×gravity for 5 min, lower layer was washed with 3 mL of methanol and 2.4 mL of 0.9% NaCl. Second washing was carried with 3 mL of methanol, 2 mL of water and 0.4 mL of 0.9% NaCl followed by a 5 min centrifugation at 800×gravity. The resultant lower phase was collected and dried under a stream of N2 gas.
The analysis of neutral glycosphingolipids from mouse liver, kidney, and brain was processed after alkaline methanolysis. […] lipids were incubated with 2 mL of chloroform and 1 ml of 0.21N NaOH in methanol for 2 h (kidney) or 7.5 h (liver and brain) at RT. The lipid extract was normalized to 0.5 μmol of total phospholipid phosphate (liver and kidney) or 2 μmol of total phospholipid phosphate (brain) for high performance thin layer chromatography analysis. After alkaline methanolysis, the brain lipids were passed through a silica gel column (7). Borate-impregnated thin layer chromatography plates were developed in a two solvent system. Plates were first developed in chloroform/methanol (98:2, v/v). The plates loaded with kidney and liver lipids were then developed in chloroform/methanol/water (64:24:4, v/v/v), and brain lipids were further separated in chloroform/methanol/water (60:30:6, v/v/v). GlcCer levels were quantified by comparison to known standards.

T1 sequence (P08183 whole entry): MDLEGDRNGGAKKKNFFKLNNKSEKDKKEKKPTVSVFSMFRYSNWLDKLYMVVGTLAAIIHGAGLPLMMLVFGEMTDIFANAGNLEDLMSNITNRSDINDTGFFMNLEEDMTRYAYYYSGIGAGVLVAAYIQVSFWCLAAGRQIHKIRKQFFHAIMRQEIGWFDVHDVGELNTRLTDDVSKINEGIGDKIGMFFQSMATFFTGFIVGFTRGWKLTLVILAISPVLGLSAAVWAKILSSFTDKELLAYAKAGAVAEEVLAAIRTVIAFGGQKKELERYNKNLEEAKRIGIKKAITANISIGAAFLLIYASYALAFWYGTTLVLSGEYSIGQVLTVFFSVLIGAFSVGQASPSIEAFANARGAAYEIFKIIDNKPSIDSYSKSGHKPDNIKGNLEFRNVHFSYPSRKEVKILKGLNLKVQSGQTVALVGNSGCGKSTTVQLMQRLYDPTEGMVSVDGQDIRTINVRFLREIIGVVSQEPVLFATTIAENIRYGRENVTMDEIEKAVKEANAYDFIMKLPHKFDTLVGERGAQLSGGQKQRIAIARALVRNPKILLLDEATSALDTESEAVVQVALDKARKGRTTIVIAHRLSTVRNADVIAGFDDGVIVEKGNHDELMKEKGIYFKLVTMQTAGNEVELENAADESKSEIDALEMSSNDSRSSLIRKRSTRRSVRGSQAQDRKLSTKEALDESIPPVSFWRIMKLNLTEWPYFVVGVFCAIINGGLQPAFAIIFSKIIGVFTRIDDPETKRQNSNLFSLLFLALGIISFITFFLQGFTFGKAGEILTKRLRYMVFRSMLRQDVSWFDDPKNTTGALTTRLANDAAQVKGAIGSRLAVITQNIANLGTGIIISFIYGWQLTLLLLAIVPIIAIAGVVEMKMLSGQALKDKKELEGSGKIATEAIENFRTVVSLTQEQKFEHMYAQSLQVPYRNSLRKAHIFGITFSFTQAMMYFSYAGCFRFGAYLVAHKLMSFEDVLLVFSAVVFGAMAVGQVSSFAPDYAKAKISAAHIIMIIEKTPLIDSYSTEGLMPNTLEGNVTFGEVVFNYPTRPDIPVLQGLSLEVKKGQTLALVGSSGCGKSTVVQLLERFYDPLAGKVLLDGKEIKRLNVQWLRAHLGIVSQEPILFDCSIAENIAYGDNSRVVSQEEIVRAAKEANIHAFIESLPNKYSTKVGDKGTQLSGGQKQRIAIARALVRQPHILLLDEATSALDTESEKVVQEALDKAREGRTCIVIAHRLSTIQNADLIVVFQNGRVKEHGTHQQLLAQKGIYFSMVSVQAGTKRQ

| SMILES | [3H]vinblastine uptake into MDR1-MDCKII cells [1] | change in brain GlcCer levels [2] | fall in brain GlcCer levels [2] | liver and kidney GlcCer levels [2] | liver and kidney GlcCer levels ([2]; listed as eliglustat) | brain GlcCer content, short term dosing [2] | brain GlcCer content, short term dosing ([2]; listed as eliglustat tartrate) | interaction with / recognition by MDR1 ([1]; assessed by GCS IC50 shift and vinblastine uptake assays) |
| --- | --- | --- | --- | --- | --- | --- | --- | --- |
| CCCCCCCC(=O)N[C@H](CN1CCCC1)[C@H](O)c1ccc2c(c1)OCCO2 [Compound 3a, N-((1R,2R)-1-(2,3-dihydrobenzo-[b][1,4]dioxin-6-yl)-1-hydroxy-3-(pyrrolidin-1-yl)propan-2-yl)octanamide, reference compound] | dose-dependent increase | without changes | without any changes | significantly lowered | lowered | failed to demonstrate any change | an effect not seen | – |
| O=C(CC1Cc2ccccc2C1)N[C@H](CN1CCCC1)[C@H](O)c1ccc2c(c1)OCCO2 [Compound 3h, 2-(2,3-dihydro-1H-inden-2-yl)-N-((1R,2R)-1-(2,3-dihydrobenzo[b][1,4]dioxin-6-yl)-1-hydroxy-3-(pyrrolidin-1-yl)propan-2-yl)acetamide] | no significant dose dependent change | ten percent decrease | 17% | – | – | significant dose dependent decrease; also recorded: significantly lowered | – | little to no apparent recognition by MDR1; also recorded: least interaction with MDR |
